Measurements taken from article PMC11784839, “Monoaminergic neurotransmitters are bimodal effectors of tau aggregation” (Science Advances, 2025).

Molecular target: tau (Homo sapiens, UniProt P10636)
Experiment: MCE Phenols Library screening, tau biosensor cell seeding assay (AvZ)
Type: cell-based
Conditions: for Z repl 1 / Z Repl 2: Z score; for Z repl 1 / raw data 1: replicate 1; for Z Repl 2 / raw data 2: replicate 2; for AvZ (average z score of seeding, SDs from the mean level of seeding): 10 μM phenol in cell cultures, AD brain homogenate preincubated 16 hours, two biological replicates, positive = catalyzes seeding, negative = inhibits
[1] = average Z score of the two replicates, tau seeding
[2] = average Z score of the two replicates, MCE Phenols Library screen
[3] = average puncta of the two replicates
[4] = average Z score of two replicates, Phenols Library screen
[5] = average Z score of the two replicates, tau biosensor seeding, MCE Phenols Library screen

Sequence of tau (P10636 623-695 limits assumed): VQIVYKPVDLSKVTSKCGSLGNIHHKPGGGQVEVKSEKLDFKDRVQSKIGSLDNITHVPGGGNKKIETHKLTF

Z repl 1 | Z Repl 2 | av Z [1] | raw data 1 (puncta) | raw data 2 (puncta) | av Z [2] | av puncta [3] | AvZ (average z score of seeding, SDs from the mean level of seeding) | raw data 1 (raw puncta) | raw data 2 (raw puncta) | Compound | av puncta (average of raw data 1 and 2) | av Z [4] | av Z [5]
0.764 | -0.24 | 0.262 | 35522.1 | 10201.8 | – | – | – | – | – | O=C(CCc1ccc(O)cc1)c1c(O)cc(O[C@@H]2O[C@H](CO)[C@@H](O)[C@H](O)[C@H]2O)cc1O [Trilobatin] | 22862 | – | –
-0.342 | -0.568 | – | 22246.4 | 6703.04 | -0.455 | 14474.7 | – | – | – | C[C@@H]1O[C@@H](OC[C@H]2O[C@@H](Oc3c(-c4ccc(OCCO)c(OCCO)c4)oc4cc(OCCO)cc(O)c4c3=O)[C@H](O)[C@@H](O)[C@@H]2O)[C@H](O)[C@H](O)[C@H]1O [Troxerutin] | – | – | –
-0.244 | 0.385 | – | 23421.7 | 16873.8 | – | – | 0.07 | – | – | NCCc1ccc(O)cc1 [Tyramine] | 20147.8 | – | –
-0.193 | 0.294 | – | 24027 | 15904.1 | – | – | 0.05 | – | – | OCCc1ccc(O)cc1 [Tyrosol] | 19965.6 | – | –
-0.755 | -0.316 | – | 17290 | 9394.79 | -0.535 | 13342.4 | – | – | – | O=c1oc2cc(O)ccc2c2cc(O)c(O)cc12 [Urolithin C] | – | – | –
0.198 | -0.736 | – | – | – | – | 16813.8 | -0.269 | 28727.3 | 4900.36 | COc1cc(CO)ccc1O [Vanillyl alcohol] | – | – | –
0.039 | -0.742 | – | – | – | – | 15824.3 | -0.352 | 26811.5 | 4837.1 | COc1cc(CC(=O)C(=O)O)ccc1O [Vanilpyruvic acid] | – | – | –
-0.258 | -1.055 | – | 23255.9 | 1501.28 | -0.656 | 12378.6 | – | – | – | C[C@@H]1O[C@@H](O[C@@H]2[C@@H](O)[C@H](OCCc3ccc(O)c(O)c3)O[C@H](CO)[C@H]2OC(=O)/C=C/c2ccc(O)c(O)c2)[C@H](O)[C@H](O)[C@H]1O [Verbascoside] | – | – | –
0.022 | -0.802 | – | – | – | -0.39 | 15407.7 | – | 26610.5 | 4204.9 | O=c1cc(-c2ccc(O)cc2)oc2c([C@@H]3O[C@H](CO)[C@@H](O)[C@H](O)[C@H]3O)c(O)c([C@@H]3OC[C@@H](O)[C@H](O)[C@H]3O)c(O)c12 [Vicenin-1] | – | – | –
0.632 | -0.232 | 0.2 | 33940.8 | 10285.2 | – | – | – | – | – | O=c1cc(-c2ccc(O)cc2)oc2c([C@@H]3O[C@H](CO)[C@@H](O[C@@H]4O[C@H](CO)[C@@H](O)[C@H](O)[C@H]4O)[C@H](O)[C@H]3O)c(O)cc(O)c12 [Vitexin-4''-O-glucoside] | 22113 | – | –
-0.852 | -1.136 | – | 16120.2 | 631.756 | -0.994 | – | – | – | – | COc1cc(O)c2c(c1)oc(=O)c1c3cc(O)c(O)cc3oc21 [Wedelolactone] | 8376 | – | –
0.851 | 1.113 | – | 36560.6 | 24654.2 | – | – | – | – | – | COc1c(O)cc(O)c2c(=O)cc(-c3ccccc3)oc12 [Wogonin] | 30607.4 | – | 0.982
-0.039 | -0.756 | – | – | – | -0.398 | 15284.9 | – | 25879 | 4690.87 | COc1c(O[C@@H]2O[C@H](C(=O)O)[C@@H](O)[C@H](O)[C@H]2O)cc(O)c2c(=O)cc(-c3ccccc3)oc12 [Wogonoside] | – | – | –
-0.889 | -0.335 | – | 15671.6 | 9188.09 | -0.612 | 12429.8 | – | – | – | COc1ccc(-c2oc3c(CCC(C)(C)O)c(O)cc(O)c3c(=O)c2O)cc1 [Wushanicaritin] | – | – | –
0.422 | 0.877 | – | 31416.6 | 22131.8 | – | – | 0.65 | – | – | COc1cc(O)c(C(C)=O)c(OC)c1 [Xanthoxylin] | 26774.2 | – | –
0.385 | 0.874 | – | 30973.3 | 22095.4 | – | – | – | – | – | CCCCC[C@H](O)CC(=O)CCc1ccc(O)c(OC)c1 [[6]-Gingerol] | 26534.4 | – | –
-0.527 | -0.802 | – | 20022.1 | 4200.38 | – | 12111.2 | -0.665 | – | – | CCCCCCC/C=C/C(=O)CCc1ccc(O)c(OC)c1 [[8]-Shogaol] | – | – | –
-0.951 | -0.064 | – | 14936.2 | 12081.7 | – | 13509 | – | – | – | CCCCCCCCC/C=C/C(=O)CCc1ccc(O)c(OC)c1 [[10]-Shogaol] | – | – | –
-0.244 | -0.19 | – | – | – | -0.217 | 17083.5 | – | 23425.5 | 10741.6 | COc1cc2oc3cc(O)c(OC)c(CC=C(C)C)c3c(=O)c2c(O)c1CC=C(C)C [beta-Mangostin] | – | – | –
-0.724 | 0.15 | – | – | – | – | 16011.2 | -0.287 | 17659.3 | 14363.1 | O=C(O)C=Cc1ccc(O)cc1 [p-Coumaric acid] | – | – | –
0.77 | 1.484 | – | 35598.4 | 28613.9 | – | – | 1.127 | – | – | O=C(O)C(O)c1ccc(O)cc1 (stereo not shown) [p-Hydroxymandelic acid] | 32106.2 | – | –
-0.181 | -0.689 | – | – | – | -0.435 | 14787.4 | – | 24170.2 | 5404.62 | Corylin | – | – | –

Compound | Z repl 1 | Z Repl 2 | av Z [1] | raw data 1 (puncta) | raw data 2 (puncta) | av Z [2] | av puncta [3] | AvZ (average z score of seeding, SDs from the mean level of seeding) | raw data 1 (raw puncta) | raw data 2 (raw puncta) | av puncta (average of raw data 1 and 2) | av Z [4] | av Z [5]
CC(C)c1ccc2c(c1O)CC[C@H]1C3=C(CC[C@]21C)C(=O)OC3 [Triptophenolide] | 0.422 | 0.028 | 0.225 | 31418 | 13068.1 | – | – | – | – | – | 22243.1 | – | –
COc1cc(-c2oc3cc(O)cc(O)c3c(=O)c2O[C@@H]2O[C@H](CO[C@@H]3O[C@@H](C)[C@H](O)[C@@H](O)[C@H]3O)[C@@H](O)[C@H](O)[C@H]2O[C@@H]2O[C@@H](C)[C@H](O)[C@@H](O)[C@H]2O)ccc1O [Typhaneoside] | -0.172 | -0.068 | – | 24283.7 | 12042.9 | – | – | – | – | – | 18163.3 | -0.12 | –
O=c1ccc2ccc(O)cc2o1 [Umbelliferone] | -1.269 | -0.533 | – | 11115.4 | 7074.65 | -0.901 | – | – | – | – | 9095.02 | – | –
CC(=O)c1c(O)c(C)c(O)c2c1OC1=CC(=O)C(C(C)=O)C(=O)C12C (stereo not shown) [Usnic acid] | 1.459 | 0.735 | – | 43858.6 | 20618.4 | – | – | – | – | – | 32238.5 | – | 1.097
C[C@@H]1O[C@@H](Oc2cc(O)c3c(=O)c(O)c(-c4ccc(O)c(O)c4)oc3c2)[C@H](O)[C@H](O)[C@H]1O [Vincetoxicoside B] | -0.893 | -0.479 | – | 15632.1 | 7653.58 | -0.686 | 11642.8 | – | – | – | – | – | –
C[C@@H]1O[C@@H](O[C@@H]2[C@@H](O)[C@H](O)[C@@H](CO)O[C@H]2c2c(O)cc(O)c3c(=O)cc(-c4ccc(O)cc4)oc23)[C@H](O)[C@H](O)[C@H]1O [Vitexin-2"-O-rhamnoside] | 0.246 | -0.753 | – | – | – | -0.253 | 17015.1 | – | 29301.6 | 4728.59 | – | – | –
O=C(O)c1cc(O)c2cccc(O)c2n1 [Xanthurenic acid] | 0.734 | 1.586 | – | 35156.1 | 29703.1 | – | – | – | – | – | 32429.6 | – | 1.16
C[C@H]1CCCC(=O)CCCCCc2cc(O)cc(O)c2C(=O)O1 [Zearalanone] | 0.089 | -0.477 | – | 27422.4 | 7675.78 | – | – | – | – | – | 17549.1 | -0.194 | –
C[C@H]1CCCC(=O)CCC/C=C/c2cc(O)cc(O)c2C(=O)O1 [Zearalenone] | -0.335 | 0.423 | – | 22326 | 17279.6 | – | – | – | – | – | 19802.8 | 0.044 | –
(+)-Usnic acid | 0.232 | -0.478 | – | 29133.2 | 7663.33 | – | – | – | – | – | 18398.3 | -0.123 | –
Alpinetin | -0.059 | -0.789 | – | – | – | -0.424 | 14986.7 | – | 25635 | 4338.39 | – | – | –
Bavachinin | 0.618 | -0.383 | – | 33763.9 | 8675.17 | – | – | – | – | – | 21219.6 | 0.117 | –
